Measurements published in ChEMBL document CHEMBL4043071, “Neuroprotective Caffeoylquinic Acid Derivatives from the Flowers of Chrysanthemum morifolium” (J Nat Prod, 2017).
Calls of active or inactive are those of the source. The calls are words filed in the database; no cut-off is given here.

Assays:
SH-SY5Y [1] = test: Neuroprotective activity in human SH-SY5Y cells assessed as reduction in oxygen-glucose deprivation-induced cytotoxicity at 10 uM relative to untreated control; format: functional, cell-based
SH-SY5Y [2] = test: Neuroprotective activity in human SH-SY5Y cells assessed as reduction in hydrogen peroxide-induced cytotoxicity by measuring cell viability level at 10 uM (reference value: 50.7+/- 2.6%); format: functional
SH-SY5Y [3] = test: Neuroprotective activity in human SH-SY5Y cells assessed as reduction in glutamate-induced cytotoxicity at 10 uM relative to untreated control; format: functional, cell-based
SH-SY5Y [4] = test: Cytotoxicity against human SH-SY5Y cells assessed as reduction in cell viability level at 10 uM relative to untreated control; format: cell-based

SMILES | Activity (SH-SY5Y [1]) | Activity (SH-SY5Y [2]) | Activity (SH-SY5Y [3]) | Activity (SH-SY5Y [4])
O=C(O)[C@H]1O[C@@H](Oc2cc(O)c3c(=O)cc(-c4ccc(O)c(O)c4)oc3c2)[C@H](O)[C@@H](O)[C@@H]1O | inactive | 80.9% | inactive | –
O=C(/C=C/c1ccc(O)c(O)c1)O[C@@H]1[C@H](O)C[C@@](O)(C(=O)O)C[C@H]1OC(=O)[C@@H]1[C@@H]2O[C@@](CO)(C=CC2=O)[C@H]1c1ccc(O)c(O)c1 | inactive | 76.7% | inactive | –
O=c1cc(-c2ccc(O[C@@H]3O[C@H](CO)[C@@H](O)[C@H](O)[C@H]3O)c(O)c2)oc2cc(O[C@@H]3O[C@H](CO)[C@@H](O)[C@H](O)[C@H]3O)cc(O)c12 | inactive | – | inactive | –
COc1ccc(-c2cc(=O)c3c(O)cc(O[C@@H]4O[C@H](CO)[C@@H](O)[C@H](O)[C@H]4O)cc3o2)cc1O | inactive | – | inactive | –
O=C(/C=C/c1ccc(O)c(O)c1)O[C@@H]1C[C@@](O)(C(=O)O)C[C@@H](O)[C@@H]1OC(=O)[C@@H]1[C@@H](c2ccc(O)c(O)c2)[C@@]2(CO)C=CC(=O)[C@@H]1O2 | inactive | 75.6% | inactive | –
CC(=O)OC[C@H]1O[C@@H](Oc2cc(O)c3c(=O)cc(-c4ccc(O)c(O)c4)oc3c2)[C@H](O)[C@@H](O)[C@@H]1O | inactive | – | inactive | –
O=C(/C=C/c1ccc(O)c(O)c1)O[C@@H]1[C@H](O)C[C@@](O)(C(=O)O)C[C@H]1OC(=O)/C=C/c1ccc(O)c(O)c1 | inactive | 75.2% | inactive | –
O=C(/C=C/c1ccc(O)c(O)c1)O[C@@H]1C[C@@](OC(=O)/C=C/c2ccc(O)c(O)c2)(C(=O)O)C[C@@H](O)[C@@H]1O [CYNARIN] | inactive | 77.2% | inactive | –
O=c1cc(-c2ccc(O)c(O)c2)oc2cc(O[C@@H]3O[C@H](CO)[C@@H](O)[C@H](O)[C@H]3O)cc(O)c12 [GALUTEOLIN] | inactive | 87.6% | inactive | –
O=c1cc(-c2ccc(O)cc2)oc2cc(O[C@@H]3O[C@H](CO)[C@@H](O)[C@H](O)[C@H]3O)cc(O)c12 | inactive | – | inactive | –
CC(=O)O[C@@H]1[C@H](O)C[C@@](O)(C(=O)O)C[C@H]1OC(=O)/C=C/c1ccc(O)c(O)c1 | inactive | – | inactive | Toxic
CCCC[C@@H]1OC(=O)c2ccccc21 [(3S)-BUTYLPHTHALIDE] | – | 73.9% | – | –
O=C(/C=C/c1ccc(O)c(O)c1)O[C@@H]1[C@H](O)C[C@@](O)(C(=O)O)C[C@H]1OC(=O)[C@@H]1[C@@H](c2ccc(O)c(O)c2)[C@@]2(CO)C=CC(=O)[C@@H]1O2 | inactive | 78.4% | inactive | –
O=C(/C=C/c1ccc(O)c(O)c1)O[C@@H]1C[C@](O)(C(=O)O)C[C@@H](O)[C@H]1O | inactive | inactive | inactive | –
